From article PMC8838787, “The Antiproliferative and Apoptotic Effects of a Novel Quinazoline Carrying Substituted-Sulfonamides: In Vitro and Molecular Docking Study” (Molecules, 2022)

Experiments:
[1] = test system: HepG2 (liver) cancer cells; experiment: MTT cell viability assay, HepG2; assay type: cell-based; settings: Homo sapiens, 48 h, average ± SD (n = 3)
Protocol: (§1) Compounds 4a–n were subjected to the cytotoxicity screening of the cell lines MCF-7 (breast), LoVo (colon), HepG2 (liver) and A549 (lung) carcinoma cells as well as HUVEC normal cell lines. The MTT assay was employed to assess cytotoxicity after 48 h of treatment with different concentrations of each compound and doxorubicin was used as a reference drug. The results were presented in Table 1 as growth inhibitory concentration (IC50 values).
(§2) Cell viability was determined using 3-(4,5-dimethylthiazol-2-yl)-2,5-diphenyl tetrazolium bromide (MTT) assay as stated previously. In brief, A549 (lung), HepG2 (liver), LoVo (colon), MCF-7 (breast) cancer cells as well as normal cells (HUVEC) were seeded in 96-well plates (10^5 per well) and compounds were added in a different final concentration. All cells were treated for 48 h, and then 10μL of MTT reagent (5 mg/mL) was added to each well and further incubated for 4 h. Thereafter, 0.1 mL of acidified isopropanol was added to solubilize formazan product and the developed color was measured at 570 nm in Microplate ELISA Reader (BioTek, Elx-800, Winooski, VT, USA). The IC50 values (concentration required for 50% inhibition of cell viability) were calculated using dose response curve. Cell viability was calculated as = (Ab Treated/Ab Control) × 100.
(§3) The A549, HepG2, LoVo and MCF-7 cancer cell lines were obtained from the German Collection of Microorganisms and Cell Cultures (DSMZ) (Braunschweig, Germany). For Human umbilical vein endothelial cells (HUVEC cells), it was purchased from American Type Culture Collection (16549; Cat no. PCS-100-010; ATTCC, Manassas, VA, USA).

[2] = test system: MCF-7 (breast) cancer cells; experiment: MTT cell viability assay, MCF-7; assay type: cell-based, human; settings: Homo sapiens, MCF7, 48 h, average ± SD (n = 3)
Protocol: as §1, §2, §3

Bax [3] = experiment: RT-PCR of apoptotic genes, Bax; assay type: cell-based, human; settings: 24 h, vs control, normalized to β-actin
From the text: (§4) We next used reverse transcription polymerase chain reaction (RT-PCR) and Western blot analysis to look at Bax (proapoptotic), Bcl-2 (antiapoptotic) and caspase 7 (executioner caspase) expression at gene and protein level as an additional marker of apoptosis occurrence. In fact, apoptotic cell death is mostly directed by the levels of Bcl-2 family, whether they are pro-apoptotic or antiapoptotic and targeting these molecules as a therapeutic strategy is continuously under development. As predicted, we observed an upregulation in the expression of Bax in MCF-7 treated cells to (1.7-, 2- and 2.4-fold) with compound 4d and to (1.2-, 1.4- and 1.6-fold) with compound 4f at (1.25, 2.5 and 5 µM) respectively (Figure 6). […] This shifting in Bax to Bcl-2 ratio usually started caspases activation which plays a critical role in apoptosis execution. Among all caspases, caspase 7 is considered as one of the most crucial executioner caspases that mediate cell death, and its expression strongly correlates with apoptosis stimulation.
(§5) The MCF-7 cells (0.1 × 10^6) in 12 well plates were treated with different concentrations of compounds 4d and 4f for 24 h and untreated cells were used as a control. After 24 h of treatment, cell culture media was removed and the cells were lysed with Trizol (Invitrogen, Waltham, MA, USA), and total RNA was extracted from all the samples [42]. The RNA was estimated by Nano-drop and 1 µg of RNA was used in the cDNA synthesis. The cDNA was synthesized from RNA by using a cDNA synthesis kit (Invitrogen, Thermo Fisher Scientific, lnc., Waltham, MA, USA) according to the manufacturer’s instruction. After Reverse transcription at 42 °C for 60 min, RT-PCR was performed using 5× Firepol Master Mix ready to load (Solis BioDyne) according to manufacturer’s instruction. RT-PCR was used to analyze the gene expression level of P53, Bcl2, Bax and caspase 7 using specific sets of primers for each gene, while β-actin was utilized as a housekeeping gene. The program was run as follows, initial denaturation at 95 °C for 5 min; denaturation at 95 °C for 30 s; annealing at 55 °C for 45 s; elongation at 72 °C for 45 s (30 Cycles) and final extension at 72 °C for 10 min. The RT-PCR products were electrophoresed on a 1.2% agarose gel containing ethidium bromide and the gel was imaged on a Licor machine.

Bcl-2 [4] = experiment: RT-PCR of apoptotic genes, Bcl-2; assay type: cell-based, human; settings: 24 h, vs DMSO-vehicle treated cells
From the text: as §4, §5

caspase 7 = experiment: Western blot, caspase 7 protein; assay type: cell-based, human; settings: 24 h, in comparison to the control
From the text: as §4
MCF-7 cells were plated in six well plates at the density of 0.5 × 10^6 and kept for adherence for overnight. On the next day, complete media was replaced with the fresh one and treated the cells with compounds 4d and 4f for 24 h at various concentrations. After 24 h of treatment, cells were harvested and washed twice with 1× PBS before adding the lysis buffer (20 mM Tris pH 7.5, 150 mM Nacl, 1 mM Na2EDTA, 1 mM EGTA, 1% Triton X100, 1 μg/mL Leupeptin and 100 µM phenylmethylsulfonyl fluoride—PMSF) and kept it for 1 h on ice, with intermittent vortex mixing every 10 min. The samples were centrifuged at 13,000 rpm at 4 °C for 15 min and then the supernatants were transferred into new tubes. Total protein was measured by using Bio-Rad Bradford kit and then 35 µg of the total protein was run on a 12% SDS-PAGE and transferred to a nitrocellulose membrane. The membrane was blocked with 5% BSA in TBST (150 mM Nacl, 20 mM Tris base and 0.1% Tween 20) for 2 h at room temperature and then washed three times with TBST buffer. Then the membrane was incubated with the desired antibodies (p53, Bcl-2, Bax, caspase7 and β-actin) (1:200, Santa Cruz Biotecnology, Inc., Dallas, TX, USA) and kept on a rocker at 4 °C overnight. On the next day, the membrane was washed three times with TBST buffer and then incubated with horseradish peroxidase-conjugated secondary antibody (1:3000) for 1 h at room temperature. After incubation, membranes were washed three times with TBST buffer and then were ready for immunodetection. For immunodetection, membranes were incubated with ECL Western blotting detecting reagents (Amersaham Pharmacia Biotech Inc., Zurich, Switzerland) and then bands were obtained by exposing to X-ray films (Amersham).

Bax [5] = experiment: Western blot, Bax protein; assay type: cell-based, human; settings: MCF-7, 1.25, 2.5 and 5 μM, 24 h, vs control cells
From the text: as §4, with “Among all caspases, caspase 7 is considered as one of the most crucial executioner caspases that mediate cell death, and its expression strongly correlates with apoptosis stimulation.” left out
(§6) MCF-7 cells were plated in six well plates at the density of 0.5 × 10^6 and kept for adherence for overnight. […] Total protein was measured by using Bio-Rad Bradford kit and then 35 µg of the total protein was run on a 12% SDS-PAGE and transferred to a nitrocellulose membrane. […] After incubation, membranes were washed three times with TBST buffer and then were ready for immunodetection. […]

Bcl-2 [6] = experiment: Western blot, Bcl-2 protein; assay type: cell-based, human; settings: MCF-7, 1.25, 2.5 and 5 μM, 24 h, vs control cells
From the text: as §4, with “Among all caspases, caspase 7 is considered as one of the most crucial executioner caspases that mediate cell death, and its expression strongly correlates with apoptosis stimulation.” left out
as §6

Row | IC50 [1] | IC50 [2] | Structure (SMILES) | expression of Bax (RT-PCR) (Bax [3]; MCF-7, 1.25 µM) | expression of Bax (RT-PCR) (Bax [3]; MCF-7, 2.5 µM) | expression of Bax (RT-PCR) (Bax [3]; MCF-7, 5 µM) | Bcl-2 expression (RT-PCR) (Bcl-2 [4]; MCF-7, 1.25 µM) | Bcl-2 expression (RT-PCR) (Bcl-2 [4]; MCF-7, 2.5 µM) | Bcl-2 expression (RT-PCR) (Bcl-2 [4]; MCF-7, 5 µM) | caspase 7 protein expression (Western blot) (caspase 7; MCF-7, 1.25 μM) | caspase 7 protein expression (Western blot) (caspase 7; MCF-7, 2.5 μM) | caspase 7 protein expression (Western blot) (caspase 7; MCF-7, 5 μM) | expression of Bax protein (Western blot, in words) (Bax [5]) | expression of Bcl-2 protein (Western blot, in words) (Bcl-2 [6])
1 | 9 ± 0.3 µM | 2.5 ± 0.2 µM | COc1cccc2c(=O)n(-c3ccc(S(=O)(=O)NCC(=O)Nc4ccc(C)cc4)cc3)c(SCC(=O)Nc3ccc(C)cc3)nc12 [Compound 4d] | 1.7 fold | 2 fold | 2.4 fold | 0.88 fold | 0.68 fold | 0.49 fold | 3 fold | 3.3 fold | 3.9 fold | markedly increased | downregulated in a dose-dependent manner
2 | 11.7 ± 2 µM | 5 ± 0.24 µM | CCc1cccc(NC(=O)CNS(=O)(=O)c2ccc(-n3c(SCC(=O)Nc4cccc(CC)c4)nc4c(OC)cccc4c3=O)cc2)c1 [Compound 4f, N-(3-ethylphenyl)-2-((3-(4-(N-(2-((3-ethylphenyl)amino)-2-oxoethyl)sulfamoyl)-phe-nyl)-8-methoxy-4-oxo-3,4-dihydroquinazolin-2yl)thio)acetamide] | 1.2 fold | 1.4 fold | 1.6 fold | 0.92 fold | 0.68 fold | 0.62 fold | 1.14 fold | 1.2 fold | 1.5 fold | markedly increased | downregulated in a dose-dependent manner
